Results: ChEMBL document CHEMBL1759923, “Preparation, in vitro screening and molecular modelling of symmetrical bis-quinolinium cholinesterase inhibitors--implications for early myasthenia gravis treatment” (Bioorg Med Chem Lett, 2011)
Activity calls are given as the source filed them. No cut-off for these calls is given here.

Legend:
[1] = molecular target: T1, Acetylcholinesterase (Homo sapiens, UniProt P22303); assay: Inhibition of human erythrocyte recombinant AChE by modified Ellman's method
T1 sequence (P22303 whole entry): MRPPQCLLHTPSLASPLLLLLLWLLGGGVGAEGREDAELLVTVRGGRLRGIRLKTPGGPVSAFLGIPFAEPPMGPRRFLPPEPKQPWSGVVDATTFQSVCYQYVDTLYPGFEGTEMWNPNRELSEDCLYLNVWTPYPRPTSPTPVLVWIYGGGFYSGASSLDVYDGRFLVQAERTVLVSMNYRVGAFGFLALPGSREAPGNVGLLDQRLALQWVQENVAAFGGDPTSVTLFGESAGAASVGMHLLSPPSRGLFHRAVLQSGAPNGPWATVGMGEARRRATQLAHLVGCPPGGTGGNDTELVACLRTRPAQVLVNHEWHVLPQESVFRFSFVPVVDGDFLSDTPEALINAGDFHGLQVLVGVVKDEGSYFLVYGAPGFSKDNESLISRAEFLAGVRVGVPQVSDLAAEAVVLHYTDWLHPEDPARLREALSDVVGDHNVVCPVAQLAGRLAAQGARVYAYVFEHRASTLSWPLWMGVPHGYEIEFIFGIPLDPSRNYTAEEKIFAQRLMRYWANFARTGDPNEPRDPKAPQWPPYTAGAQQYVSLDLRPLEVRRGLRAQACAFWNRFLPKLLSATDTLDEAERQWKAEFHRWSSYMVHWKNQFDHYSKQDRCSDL

[2] = molecular target: Cholinesterase (Homo sapiens, UniProt P06276); assay: Inhibition of human plasmatic BChE by modified Ellman's method; design: species or system Plasma
Chain of Cholinesterase (P06276 whole entry): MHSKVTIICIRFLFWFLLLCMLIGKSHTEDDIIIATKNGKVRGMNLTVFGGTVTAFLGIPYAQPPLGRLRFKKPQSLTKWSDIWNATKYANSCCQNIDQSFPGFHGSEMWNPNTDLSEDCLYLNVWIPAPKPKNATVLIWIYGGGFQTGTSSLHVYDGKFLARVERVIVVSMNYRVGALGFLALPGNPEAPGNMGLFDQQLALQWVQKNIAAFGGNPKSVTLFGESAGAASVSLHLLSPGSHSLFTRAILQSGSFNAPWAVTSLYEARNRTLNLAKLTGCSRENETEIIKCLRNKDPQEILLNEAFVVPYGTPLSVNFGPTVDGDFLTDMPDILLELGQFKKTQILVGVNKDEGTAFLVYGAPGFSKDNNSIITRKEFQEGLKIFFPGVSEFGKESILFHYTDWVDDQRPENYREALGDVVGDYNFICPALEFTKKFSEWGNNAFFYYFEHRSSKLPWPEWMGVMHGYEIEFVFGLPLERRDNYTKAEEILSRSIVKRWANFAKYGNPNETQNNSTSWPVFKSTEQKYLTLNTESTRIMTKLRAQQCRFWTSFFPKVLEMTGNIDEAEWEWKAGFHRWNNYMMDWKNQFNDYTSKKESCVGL

[3] = molecular target: T1, Acetylcholinesterase; assay: Inhibition of human erythrocyte recombinant AChE at 0.1 mM to […] by modified Ellman's method
[4] = molecular target: T1, Acetylcholinesterase; assay: Inhibition of human erythrocytes recombinant AChE assessed as dissociation constant for enzyme-inhibitor complex
[5] = molecular target: T1, Acetylcholinesterase; assay: Inhibition of human erythrocytes recombinant AChE assessed as dissociation constant for enzyme-inhibitor-substrate complex

Compound | IC50 [1] [µM] | IC50 [2] [µM] | inhibition [3] | Ki [4] [µM] | Ki [5] [µM]
c1ccc2c(c1)ccc[n+]2CCCCC[n+]1cccc2ccccc21 | 4 | 34 | – | – | –
c1ccc2c(c1)ccc[n+]2CCCCCCCCCCCC[n+]1cccc2ccccc21 | 0.02 | 0.4 | – | – | –
c1ccc2c(c1)ccc[n+]2CCCCCCCC[n+]1cccc2ccccc21 | 0.08 | 0.7 | – | – | –
c1ccc2c(c1)ccc[n+]2CCCCCCCCCCC[n+]1cccc2ccccc21 | 0.01 | 0.5 | – | – | –
c1ccc2c(c1)ccc[n+]2Cc1ccc(C[n+]2cccc3ccccc32)cc1 | – | – | inactive | – | –
c1ccc2c(c1)ccc[n+]2CCCCCCC[n+]1cccc2ccccc21 | 0.09 | 0.4 | – | – | –
c1ccc(C[n+]2cccc3ccccc32)c(C[n+]2cccc3ccccc32)c1 | 35 | 6 | – | – | –
c1cc(C[n+]2cccc3ccccc32)cc(C[n+]2cccc3ccccc32)c1 | 40 | 20 | – | – | –
C[N+](C)(CCNC(=O)C(=O)NCC[N+](C)(C)Cc1ccccc1Cl)Cc1ccccc1Cl [AMBENONIUM DICHLORIDE] | – | 7 | – | – | –
c1ccc2c(c1)ccc[n+]2Cc1ccc2ccc(C[n+]3cccc4ccccc43)cc2c1 | 0.8 | 0.2 | – | 2.3 | 8.2
c1ccc2c(c1)ccc[n+]2CCCCCC[n+]1cccc2ccccc21 | 25 | 5 | – | – | –
c1ccc2c(c1)ccc[n+]2COC[n+]1cccc2ccccc21 | 418 | 871 | – | – | –
c1ccc2c(c1)ccc[n+]2CCOCC[n+]1cccc2ccccc21 | 35 | 48 | – | – | –
c1ccc2c(c1)ccc[n+]2CCCC[n+]1cccc2ccccc21 | 38 | 32 | – | – | –
c1ccc2c(c1)ccc[n+]2CCC[n+]1cccc2ccccc21 | 9 | 13 | – | – | –
C(=C\C[n+]1cccc2ccccc21)/C[n+]1cccc2ccccc21 | 6 | 308 | – | – | –
c1ccc2c(c1)ccc[n+]2CCCCCCCCC[n+]1cccc2ccccc21 | 0.08 | 0.6 | – | – | –
C(=C/C[n+]1cccc2ccccc21)/C[n+]1cccc2ccccc21 | 2 | 0.8 | – | – | –
